We go through 2 compounds from patent US4925797A, “Process for the decomposition of acrylamide” (Imperial Chemical Industries plc, priority 1986, dated 1990).

The test system of this assay is Methylophilus methylotrophus amidase (acylamide amido hydrolase E.C. No. 3-5-1-4). Briefly: Methylophilus methylotrophus amidase properties (Km). The format is biochemical. The following applies: amidase induced in Methylophilus methylotrophus; substrate as named.

Molecules are shown by their SMILES.

In the case of `CC(N)=O` [Acetamide], the Km worked out at 0.2 mM.

Turning to `C=CC(N)=O` [Acrylamide], the Km is 10 mM.
